Article PMC7048242 (Cancer letters, 2018)

Columns and labels:
S100B [1] = details: cited from earlier work
K-Luc cells = details: K-Luc cell line
S100B [2] = assay: S100B expression in GL261 cells; type: cell-based, mouse
[3] = test system: intracranial GL261 gliomas
CCL2 = details: GL261 cells, 48 h incubation
[4] = test system: tumor-associated leukocytes; details: 30 mg/kg/14 days, LPS 0.5 μg/ml 24 h, q-PCR
in vivo = details: C57BL/6, mouse, po, 30 mg/kg
S100B promoter = assay: HTS cell-based S100B promoter-driven luciferase reporter assay; parameters: species or system human
U251 glioma cells = details: 5 μM, U251 (not shown)
[5] = test system: tumor-associated myeloid-derived cells
[6] = contralateral brain tissue without tumor

CNCCC(Oc1ccc(C(F)(F)F)cc1)c1ccccc1 (centres unmarked) [fluoxetine]
S100B expression in rat astrocytes in vivo (S100B [1]): stimulated

CNCC[C@H](Oc1cccc2ccccc12)c1cccs1 [Duloxetine]
Cell proliferation in vitro (K-Luc cells): modest inhibitory effect
S100B expression (S100B [2]; GL261 cells, low concentrations, 24 h (qPCR), 48 h (Western, ELISA, immunostains)): inhibited
Tumor growth ([3]; i.c. GL261, 14 days treatment started a day after implantation): significantly decreased
Animal survival ([3]; i.c. GL261, high doses (30 mg/kg/14 days), started a day after implantation): improved
CCL2 expression (CCL2): inhibited
Overall tumor levels of S100B and RAGE (K-Luc gliomas; K-Luc tumor-bearing mice, daily for 14 days): did not significantly change
Growth of K-Luc tumors (K-Luc gliomas; two-week treatment): did not significantly inhibit
Il-1β expression by tumor-associated leukocytes [4]: higher levels
Il-6, Il-10 and Tgf-β expression by tumor-associated leukocytes [4]: lower levels
concentration at 0.5 h (in vivo; GL261 tumor): 48.8 µM
concentration at 2 h (in vivo; GL261 tumor): 70.8 µM
concentration at 6 h (in vivo; GL261 tumor): 24.9 µM
concentration at 12 h (in vivo; GL261 tumor): 10 µM
concentration at 0.5 h (in vivo; [6]): 36.3 µM
concentration at 2 h (in vivo; [6]): 65.9 µM
concentration at 6 h (in vivo; [6]): 24.2 µM
concentration at 12 h (in vivo; [6]): 9.64 µM
concentration at 0.5 h (in vivo; plasma): 3.04 µM
concentration at 2 h (in vivo; plasma): 2.12 µM
concentration at 6 h (in vivo; plasma): 1.28 µM
concentration at 12 h (in vivo; plasma): 0.39 µM
CCL2 expression in GL261 gliomas (immunohistochemistry) (S100B, RAGE, CCL2; 30 mg/kg, two weeks): decrease
Total brain S100B, RAGE or CCL2 protein levels (S100B, RAGE, CCL2; GL261 tumor-bearing mice, 5 or 30 mg/kg/14 days, tumor and peritumoral tissue): did not significantly inhibit
Serum S100B and soluble RAGE (sRAGE) levels (S100B, RAGE, CCL2; GL261 tumor-bearing mice, two-week treatment): Nor mouse serum S100B and soluble RAGE (sRAGE) levels changed
S100B and RAGE in i.c. GL261 tumors (histochemistry) (S100B, RAGE, CCL2; two-week treatment, tumor cells): effectively inhibited
S100B promoter activity (S100B promoter; 5 μM, luciferase measured 24 h after treatment): inhibited
IC50 (S100B promoter; Homo sapiens, U-251): 10 µM
Cytotoxicity (U251 glioma cells): without causing cytotoxicity
Cell proliferation (GL261-Luc cells; GL261, Dul concentration < 10 μM): not significantly inhibited
LD50 (GL261-Luc cells; GL261-Luc cells, 24 h incubation): 25.1 µM
Proportion of macrophages, monocytic myeloid-derived cells and neutrophils in GL261 gliomas ([5]; 30 mg/kg x 14 days, FACS): decreased
Pathway Scores for innate and adaptive immunity processes in tumors ([5]; Nanostring, GL261 tumors (not in TME)): significantly higher

NC[C@H](O)c1ccc(O)c(O)c1 [NE, norepinephrine]
S100B expression in GL261 (S100B [2]; NE added every 3 h, 24 h, Western analysis): induced
S100B promoter activity in U251-Luc (S100B promoter; NE added every 3 h, luciferase measured in 12 h): induced
